# Results as given in ChEMBL document CHEMBL1158994, “Methylpendolmycin, an indolactam from a Nocardiopsis sp” (J Nat Prod, 1991).
# Target: Protein kinase C (PKC)
# Assay: Displacement of radiolabeled PDBU from PKC in rat forebrain
# Assay type: tissue-based
Ki [nM],IC50 [µg/mL],SMILES
500,–,CCCCCCCCCCCCCC(=O)O[C@@H]1[C@@H](C)[C@@]2(O)[C@@H](C=C(CO)C[C@]3(OC)C(=O)C(C)=C[C@@H]23)[C@@H]2C(C)(C)[C@]12OC(C)=O
–,0.0135,C=CC(C)(C)c1ccc2c3c(c[nH]c13)C[C@@H](CO)NC(=O)[C@H]([C@@H](C)CC)N2C [METHYLPENDOLMYCIN]
